Each compound was assayed on Bovine cardiac myofibrils (assay: Dose-dependent myofibril ATPase modulation (calcium-buffered, pyruvate kinase and lactate dehydrogenase-coupled ATPase assay at pCa25)). Conditions: concentration at which ATPase activity was 1.4-fold higher than the bottom of the dose curve, mean of a minimum of two independent tests.
Assay type: biochemical
Protocol: In Vitro Model of Dose-Dependent Myofibril ATPase Modulation
Dose responses were measured using a calcium-buffered, pyruvate kinase and lactate dehydrogenase-coupled ATPase assay containing the following reagents (concentrations expressed are final assay concentrations): Potassium PIPES (12 mM), MgCl2 (2 mM), ATP (1 mM), DTT (1 mM), BSA (0.1 mg/ml), NADH (0.5 mM), PEP (1.5 mM), pyruvate kinase (4 U/ml), lactate dehydrogenase (8 U/ml), and antifoam (90 ppm). The pH was adjusted to 6.80 at 22° C. by addition of potassium hydroxide. Calcium levels were controlled by a buffering system containing 0.6 mM EGTA and varying concentrations of calcium, to achieve a free calcium concentration of 1×10^−4 M to 1×10^−8 M.
Bovine cardiac myofibrils were obtained by homogenizing the appropriate tissue in the presence of detergent. Such treatment removes membranes and majority of soluble cytoplasmic proteins but leaves intact cardiac sarcomeric acto-myosin apparatus. Concentrations of myofibrils were adjusted to achieve the necessary rate of ATP hydrolysis (typically 0.25-1.0 mg/ml).
Chemical entity dose responses were measured at the calcium concentration corresponding to 25% of maximal ATPase activity (pCa25), so a preliminary experiment was performed to test the response of the ATPase activity to free calcium concentrations in the range of 1×10^−4 M to 1×10^−8 M. Subsequently, the assay mixture was adjusted to the pCa25. Assays were performed by first preparing a dilution series of test chemical entity, each with an assay mixture containing potassium Pipes, MgCl2, BSA, DTT, pyruvate kinase, lactate dehydrogenase, myofibrils, antifoam, EGTA, CaCl2), and water. The assay was started by adding an equal volume of solution containing potassium Pipes, MgCl2, BSA, DTT, ATP, NADH, PEP, antifoam, and water. ATP hydrolysis was monitored by absorbance at 340 nm. The resulting dose response curve was fit by the 4 parameter equation y=Bottom+((Top−Bottom)/(1+((EC50/X)^Hill))). […] AC1.4 values reported in the table below are mean values based on a minimum of two independent tests.

| SMILES | AC1.4 |
| --- | --- |
| CNc1ccc(S(=O)(=O)Nc2ccc(N3C[C@H](C)C[C@@H](C)C3)nc2)cc1C#N (racemic) [Compound 1, 3-Cyano-N-(6-(trans-3,5-dimethylpiperidin-1-yl)pyridin-3-yl)-4-(methylamino) benzenesulfonamide] | 14.3998 µM |
| C[C@@H]1C[C@@H](C)CN(c2ccc(NS(=O)(=O)c3ccc(N(C)C)c(C#N)c3)cn2)C1 (racemic) [Compound 2, 3-Cyano-4-(dimethylamino)-N-(6-(trans-3,5-dimethylpiperidin-l-yl)pyridin-3-yl)benzenesulfonamide] | 12.21 µM |
| Cc1nc2cc(C)c(S(=O)(=O)Nc3ccc(N4C[C@@H](C)C[C@H](C)C4)nc3)cc2c(=O)[nH]1 (racemic) [Compound 9, N-(6-((trans)-3,5-dimethylpiperidin-1-yl)pyridin-3-yl)-2,7-dimethyl-4-oxo-3,4-dihydroquinazoline-6-sulfonamide] | 9.2363 µM |
| CNc1ccc(S(=O)(=O)Nc2ccc(N3C[C@H](C)C[C@@H](C)C3)nc2)cc1C(N)=O (relative stereo) [Compound 3, 5-(N-(6-(trans-3,5-dimethylpiperidin-1-yl)pyridin-3-yl)sulfamoyl)-2-(methylamino)benzamide] | 11.94 µM |
| CNc1cc2nc(C)[nH]c(=O)c2cc1S(=O)(=O)Nc1ccc(-c2ccccc2)cc1 [Compound 4, N-([1,1′-biphenyl]-4-yl)-2-methyl-7-(methylamino)-4-oxo-3,4-dihydroquinazoline-6-sulfonamide] | 0.1832 µM |
| Cc1nc2ccc(S(=O)(=O)Nc3ccc(N4C[C@H](C)C[C@@H](C)C4)nc3)cc2c(=O)[nH]1 [Compound 5, N-(6-((3R,5R)-3,5-dimethylpiperidin-1-yl)pyridin-3-yl)-2-methyl-4-oxo-3,4-dihydroquinazoline-6-sulfonamide] | 4.4808 µM |
| Cc1nc2cc(OCCN3CCOCC3)c(S(=O)(=O)Nc3ccc(N4C[C@H](C)C[C@@H](C)C4)nc3)cc2c(=O)[nH]1 [Compound 6, N-(6-((3R,5R)-3,5-dimethylpiperidin-1-yl)pyridin-3-yl)-2-methyl-7-(2-morpholinoethoxy)-4-oxo-3,4-dihydroquinazoline-6-sulfonamide] | 0.7385 µM |
| COc1cc2nc(C)[nH]c(=O)c2cc1S(=O)(=O)Nc1ccc(N2C[C@H](C)C[C@@H](C)C2)nc1 [Compound 7, N-(6-((3R,5R)-3,5-dimethylpiperidin-1-yl)pyridin-3-yl)-7-methoxy-2-methyl-4-oxo-3,4-dihydroquinazoline-6-sulfonamide] | 1.3592 µM |
| CNc1cc2nc(C)[nH]c(=O)c2cc1S(=O)(=O)Nc1ccc(N2C[C@H](C)C[C@@H](C)C2)nc1 [Compound 8, N-(6-((3R,5R)-3,5-dimethylpiperidin-1-yl)pyridin-3-yl)-2-methyl-7-(methylamino)-4-oxo-3,4-dihydroquinazoline-6-sulfonamide] | 0.6695 µM |
| CNc1cc2c(cc1S(=O)(=O)NC1CCN(c3ccccc3)CC1)c(=O)[nH]c(=O)n2C [Compound 10, 1-Methyl-7-(methylamino)-2,4-dioxo-N-(1-phenylpiperidin-4-yl)-1,2,3,4-tetrahydroquinazoline-6-sulfonamide] | 2.8354 µM |
| CNc1cc2nc(C)[nH]c(=O)c2cc1S(=O)(=O)NC1CCN(c2cccc(F)c2)CC1 [Compound 11, N-(1-(3-fluorophenyl)piperidin-4-yl)-2-methyl-7-(methylamino)-4-oxo-3,4-dihydroquinazoline-6-sulfonamide] | 5.252 µM |
| CNc1cc2c(cc1S(=O)(=O)N[C@H]1CC[C@H](c3ccccc3)CC1)c(=O)[nH]c(=O)n2C [Compound 12] | 1.6528 µM |
| CNc1cc2c(cc1S(=O)(=O)NCCCNc1ccccc1)c(=O)[nH]c(=O)n2C [Compound 13, 1-Methyl-7-(methylamino)-2,4-dioxo-N-(3-(phenylamino)propyl)-1,2,3,4-tetrahydroquinazoline-6-sulfonamide] | 9.783 µM |
| CNc1cc2c(cc1S(=O)(=O)N[C@H]1C[C@@H](Nc3cccc(F)c3)C1)c(=O)[nH]c(=O)n2C [Compound 14, N-((cis)-3-((3-fluorophenyl)amino)cyclobutyl)-1-methyl-7-(methylamino)-2,4-dioxo-1,2,3,4-tetrahydroquinazoline-6-sulfonamide] | 0.2006 µM |

Continued, values first:

| AC1.4 | SMILES |
| --- | --- |
| 0.2635 µM | Cc1[nH]c(S(=O)(=O)N[C@@H]2Cc3cc(Cl)c(Cl)cc3[C@H]2O)cc1C(=O)N1CC(C)(C#N)C1 (racemic) [Compound 99] |
| 0.6379 µM | CNc1cc2c(cc1S(=O)(=O)N[C@H]1CC[C@@H](Nc3ccccc3)C1)c(=O)[nH]c(=O)n2C (relative stereo) [Compound 19, 1-Methyl-7-(methylamino)-2,4-dioxo-N-((cis)-3-(phenylamino)cyclopentyl)-1,2,3,4-tetrahydroquinazoline-6-sulfonamide] |
| 0.0762 µM | CNc1cc2nc(C)[nH]c(=O)c2cc1S(=O)(=O)N[C@@H]1CCc2c([nH]c3ccccc23)C1 (single isomer, unassigned) [Compound 33] |
| 0.081 µM | Cc1[nH]c(S(=O)(=O)N[C@]2(Cc3ccc(Cl)cc3)CCOC2)cc1C(=O)N1CC(C)(C#N)C1 (single isomer, unassigned) [Compound 63] |
| 3.2638 µM | Cc1[nH]c(S(=O)(=O)N[C@]2(Cc3ccc(Cl)cc3)CCOC2)cc1C(=O)NCC(F)F (single isomer, unassigned) [Compound 65] |
| 0.1121 µM | Cc1[nH]c(S(=O)(=O)N[C@@H]2Cc3ccc(C(F)(F)F)cc3C2)cc1C(=O)N1CC(C)(C#N)C1 (single isomer, unassigned) [Compound 76] |
| 0.06985 µM | Cc1[nH]c(S(=O)(=O)N[C@@H]2Cc3cc(F)c(Cl)cc3C2)cc1C(=O)N1CC(C)(C#N)C1 (single isomer, unassigned) [Compound 83] |
| 0.303 µM | Cc1[nH]c(S(=O)(=O)N[C@H]2Cc3cc(F)c(Cl)cc3C2)cc1C(=O)N1CC(C)(C#N)C1 (single isomer, unassigned) [Compound 84] |
| 0.6294 µM | Cc1[nH]c(S(=O)(=O)N[C@H]2Cc3cc(Cl)c(Cl)cc3[C@@]2(C)O)cc1C(=O)N1CC(C)(C#N)C1 (single isomer, unassigned) [Compound 92] |
| 8.4932 µM | Cc1[nH]c(S(=O)(=O)N[C@H]2COc3cc(Cl)ccc3C2)cc1C(=O)N1CC(C)(C#N)C1 (stereo in doubt) [Compound 16, N-(7-chlorochroman-3-yl)-4-(3-cyano-3-methylazetidine-1-carbonyl)-5-methyl-1H-pyrrole-2-sulfonamide] |
| 1.019 µM | CNc1cc2nc(C)[nH]c(=O)c2cc1S(=O)(=O)N[C@H]1C[C@@H](Nc2cccc(F)c2)C1 [Compound 15, N-((cis)-3-((3-fluorophenyl)amino)cyclobutyl)-2-methyl-7-(methylamino)-4-oxo-3,4-dihydroquinazoline-6-sulfonamide] |
| 0.6931 µM | CNc1cc2c(cc1S(=O)(=O)N[C@H]1C[C@@H](Nc3ccccc3)C1)c(=O)[nH]c(=O)n2C [Compound 17] |
| 0.8832 µM | CNc1cc2c(cc1S(=O)(=O)N[C@H]1C[C@@H](Nc3ccccc3F)C1)c(=O)[nH]c(=O)n2C [Compound 18, N-((cis)-3-((2-fluorophenyl)amino)cyclobutyl)-1-methyl-7-(methylamino)-2,4-dioxo-1,2,3,4-tetrahydroquinazoline-6-sulfonamide] |
| 3.9537 µM | CNc1cc2c(cc1S(=O)(=O)NC1CC(c3ccccc3)C1)c(=O)[nH]c(=O)n2C (centres unmarked) [Compound 20, 1-Methyl-7-(methylamino)-2,4-dioxo-N-(3-phenylcyclobutyl)-1,2,3,4-tetrahydroquinazoline-6-sulfonamide] |
| 4.8236 µM | CNc1cc2c(cc1S(=O)(=O)NCCc1cc3ccccc3[nH]1)c(=O)[nH]c(=O)n2C [Compound 21] |
| 0.4479 µM | CNc1cc2c(cc1S(=O)(=O)N[C@H]1[C@@H]3CN(c4cccc(F)c4)C[C@@H]31)c(=O)[nH]c(=O)n2C [Compound 22, N-((1R,5S,6s)-3-(3-Fluorophenyl)-3-azabicyclo[3.1.0]hexan-6-yl)-1-methyl-7-(methylamino)-2,4-dioxo-1,2,3,4-tetrahydroquinazoline-6-sulfonamide] |
| 0.6045 µM | CNc1cc2c(cc1S(=O)(=O)N[C@]1(C)C[C@H](Nc3cccc(F)c3)C1)c(=O)[nH]c(=O)n2C [Compound 23, N-((cis)-3-((3-fluorophenyl)amino)-1-methylcyclobutyl)-1-methyl-7-(methylamino)-2,4-dioxo-1,2,3,4-tetrahydroquinazoline-6-sulfonamide] |
| 5.6964 µM | CNc1cc2nc(C)[nH]c(=O)c2cc1S(=O)(=O)NC1CC(c2cccc(F)c2)C1 (centres unmarked) [Compound 24, N-(3-(3-fluorophenyl)cyclobutyl)-2-methyl-7-(methylamino)-4-oxo-3,4-dihydroquinazoline-6-sulfonamide] |

From patent publication US20220332708A1 (Cytokinetics, Inc., priority 2021, published 2022)
